# From ChEMBL document CHEMBL1155042, “Carbamates with differential mechanism of inhibition toward acetylcholinesterase and butyrylcholinesterase” (J Med Chem, 2008)
# pKi: −log10 of the molar value. The source made the active and inactive calls. No cut-off for these calls is given here.
# Key:
# Cholinesterase [1] = biological target: T1, Cholinesterase (Homo sapiens, UniProt P06276); experiment: Inhibition of human serum BchE by Ellman's assay
# [2] = biological target: Acetylcholinesterase (Homo sapiens) (UniProt P22303)
# Description: Inhibition of human recombinant AchE by Ellman's assay
# Cholinesterase [3] = biological target: T1, Cholinesterase; experiment: Inhibition of human serum BchE at 73.3 uM by Ellman's assay
# Cholinesterase [4] = biological target: T1, Cholinesterase; experiment: Inhibition of human serum BchE at 23.6 uM by Ellman's assay
# Cholinesterase [5] = biological target: T1, Cholinesterase; experiment: Deactivation of human wild type recombinant BchE assessed as residual enzyme activity at 2.1 uM after 5 mins
# Cholinesterase [6] = biological target: T1, Cholinesterase; experiment: Deactivation of human wild type recombinant BchE assessed as residual enzyme activity at 2.1 uM after 10 mins
# Cholinesterase [7] = biological target: T1, Cholinesterase; experiment: Deactivation of human wild type recombinant BchE assessed as residual enzyme activity at 2.1 uM after 15 mins
# Cholinesterase [8] = biological target: T1, Cholinesterase; experiment: Deactivation of human BchE D70G mutant assessed as residual enzyme activity at 2.1 uM after 5 mins
# Cholinesterase [9] = biological target: T1, Cholinesterase; experiment: Deactivation of human BchE D70G mutant assessed as residual enzyme activity at 2.1 uM after 10 mins
# Cholinesterase [10] = biological target: T1, Cholinesterase; experiment: Deactivation of human BchE D70G mutant assessed as residual enzyme activity at 2.1 uM after 15 mins
# Cholinesterase [11] = biological target: T1, Cholinesterase; experiment: Deactivation of human BchE A539T mutant assessed as residual enzyme activity at 2.1 uM after 5 mins
# Cholinesterase [12] = biological target: T1, Cholinesterase; experiment: Deactivation of human BchE A539T mutant assessed as residual enzyme activity at 2.1 uM after 10 mins
# Cholinesterase [13] = biological target: T1, Cholinesterase; experiment: Deactivation of human BchE A539T mutant assessed as residual enzyme activity at 2.1 uM after 15 mins
# Cholinesterase [14] = biological target: T1, Cholinesterase; experiment: Deactivation of human BchE Y332A mutant assessed as residual enzyme activity at 2.1 uM after 5 mins
# Cholinesterase [15] = biological target: T1, Cholinesterase; experiment: Deactivation of human BchE Y332A mutant assessed as residual enzyme activity at 2.1 uM after 10 mins
# Cholinesterase [16] = biological target: T1, Cholinesterase; experiment: Deactivation of human BchE Y332A mutant assessed as residual enzyme activity at 2.1 uM after 15 mins
# Cholinesterase [17] = biological target: T1, Cholinesterase; experiment: Deactivation of human BchE A328Y mutant assessed as residual enzyme activity at 2.1 uM after 5 mins
# Cholinesterase [18] = biological target: T1, Cholinesterase; experiment: Deactivation of human BchE A328Y mutant assessed as residual enzyme activity at 2.1 uM after 10 mins
# Cholinesterase [19] = biological target: T1, Cholinesterase; experiment: Deactivation of human BchE A328Y mutant assessed as residual enzyme activity at 2.1 uM after 15 mins
# Cholinesterase [20] = biological target: T1, Cholinesterase; experiment: Deactivation of human BchE A328F mutant assessed as residual enzyme activity at 2.1 uM after 5 mins
# Cholinesterase [21] = biological target: T1, Cholinesterase; experiment: Deactivation of human BchE A328F mutant assessed as residual enzyme activity at 2.1 uM after 10 mins
# Cholinesterase [22] = biological target: T1, Cholinesterase; experiment: Deactivation of human BchE A328F mutant assessed as residual enzyme activity at 2.1 uM after 15 mins
# Cholinesterase [23] = biological target: T1, Cholinesterase; experiment: Deactivation of human BchE A328W mutant assessed as residual enzyme activity at 2.1 uM after 5 mins
# Cholinesterase [24] = biological target: T1, Cholinesterase; experiment: Deactivation of human BchE A328W mutant assessed as residual enzyme activity at 2.1 uM after 10 mins
# Cholinesterase [25] = biological target: T1, Cholinesterase; experiment: Deactivation of human BchE A328W mutant assessed as residual enzyme activity at 2.1 uM after 15 mins
# Cholinesterase [26] = biological target: T1, Cholinesterase; experiment: Deactivation of human BchE F329S mutant assessed as residual enzyme activity at 2.1 uM after 5 mins
# Cholinesterase [27] = biological target: T1, Cholinesterase; experiment: Deactivation of human BchE F329S mutant assessed as residual enzyme activity at 2.1 uM after 10 mins
# Cholinesterase [28] = biological target: T1, Cholinesterase; experiment: Deactivation of human BchE F329S mutant assessed as residual enzyme activity at 2.1 uM after 15 mins
# Cholinesterase [29] = biological target: T1, Cholinesterase; experiment: Deactivation of human BchE F329A mutant assessed as residual enzyme activity at 2.1 uM after 5 mins
# Cholinesterase [30] = biological target: T1, Cholinesterase; experiment: Deactivation of human BchE F329A mutant assessed as residual enzyme activity at 2.1 uM after 10 mins
# Cholinesterase [31] = biological target: T1, Cholinesterase; experiment: Deactivation of human BchE F329A mutant assessed as residual enzyme activity at 2.1 uM after 15 mins
# T1 sequence (P06276 whole entry): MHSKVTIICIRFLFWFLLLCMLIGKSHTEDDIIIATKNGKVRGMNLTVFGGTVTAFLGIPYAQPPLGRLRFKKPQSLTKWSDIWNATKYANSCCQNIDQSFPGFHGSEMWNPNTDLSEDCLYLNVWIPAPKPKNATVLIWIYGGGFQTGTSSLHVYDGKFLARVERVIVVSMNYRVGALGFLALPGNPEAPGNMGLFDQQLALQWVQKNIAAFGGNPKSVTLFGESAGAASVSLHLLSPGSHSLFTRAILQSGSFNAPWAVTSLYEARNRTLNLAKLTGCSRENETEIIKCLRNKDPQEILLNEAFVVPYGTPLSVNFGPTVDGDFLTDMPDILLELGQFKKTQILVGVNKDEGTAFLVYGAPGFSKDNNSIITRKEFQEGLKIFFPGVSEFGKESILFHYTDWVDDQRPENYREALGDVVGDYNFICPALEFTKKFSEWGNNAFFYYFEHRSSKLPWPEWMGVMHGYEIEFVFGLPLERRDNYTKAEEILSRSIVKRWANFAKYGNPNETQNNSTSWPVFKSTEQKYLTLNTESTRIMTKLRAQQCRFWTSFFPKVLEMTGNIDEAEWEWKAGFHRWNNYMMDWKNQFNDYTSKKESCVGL
# Chain of Acetylcholinesterase (Homo sapiens) (P22303 whole entry): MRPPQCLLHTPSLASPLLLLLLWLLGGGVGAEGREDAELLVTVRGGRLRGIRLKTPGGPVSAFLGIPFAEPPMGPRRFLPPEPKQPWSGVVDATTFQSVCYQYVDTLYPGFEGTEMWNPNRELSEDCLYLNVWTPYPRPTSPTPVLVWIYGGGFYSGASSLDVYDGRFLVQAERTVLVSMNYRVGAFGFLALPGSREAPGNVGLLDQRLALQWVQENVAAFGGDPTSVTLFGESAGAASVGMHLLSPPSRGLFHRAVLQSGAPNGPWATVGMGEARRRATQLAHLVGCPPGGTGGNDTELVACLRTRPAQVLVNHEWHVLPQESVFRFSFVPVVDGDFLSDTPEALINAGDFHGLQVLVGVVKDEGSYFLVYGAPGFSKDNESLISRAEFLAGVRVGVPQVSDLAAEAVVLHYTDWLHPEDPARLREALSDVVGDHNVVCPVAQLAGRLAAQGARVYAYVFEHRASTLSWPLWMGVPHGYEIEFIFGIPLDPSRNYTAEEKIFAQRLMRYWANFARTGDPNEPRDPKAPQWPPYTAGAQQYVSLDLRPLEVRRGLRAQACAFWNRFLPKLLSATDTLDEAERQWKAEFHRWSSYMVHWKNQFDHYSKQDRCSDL
compound,measurement,setting,value
COc1ccccc1OC(=O)N1c2ccccc2Sc2ccccc21,pKi,Cholinesterase [1],6.47
same,Ka,[2],5.99 ×10³ /M/min
CCCCOC(=O)N1c2ccccc2Sc2ccccc21,pKi,Cholinesterase [1],4.87
same,Ka,[2],0.135 ×10³ /M/min
O=C(Oc1ccccc1)N1c2ccccc2Sc2ccccc21,pKi,Cholinesterase [1],6.24
same,Ka,[2],46 ×10³ /M/min
CC(C)(C)OC(=O)N1c2ccccc2Sc2ccccc21,pKi,Cholinesterase [1],5.37
same,Ka,[2],0.219 ×10³ /M/min
CCN(CC)CCOC(=O)N1c2ccccc2Sc2ccccc21,pKi,Cholinesterase [1],6.21
same,Ka,[2],0.24 ×10³ /M/min
O=C(OCCN1CCCC1)N1c2ccccc2Sc2ccccc21,pKi,Cholinesterase [1],6.19
same,Ka,[2],46 ×10³ /M/min
O=C(Oc1ccc(Cl)cc1)N1c2ccccc2Sc2ccccc21,pKi,Cholinesterase [1],4.98
same,Ka,[2],7.25 ×10³ /M/min
Cc1ccc(OC(=O)N2c3ccccc3Sc3ccccc32)cc1,pKi,Cholinesterase [1],5.55
same,Ka,[2],92.6 ×10³ /M/min
O=C(Oc1ccccc1Cl)N1c2ccccc2Sc2ccccc21,pKi,Cholinesterase [1],4.34
same,Ka,[2],18.7 ×10³ /M/min
O=C(Oc1cccc(Cl)c1)N1c2ccccc2Sc2ccccc21,pKi,Cholinesterase [1],6.24
same,Ka,[2],3.21 ×10³ /M/min
CC(C)(C)c1ccc(OC(=O)N2c3ccccc3Sc3ccccc32)cc1,Activity,Cholinesterase [3],inactive
same,Ka,[2],0.63 ×10³ /M/min
CCCOC(=O)N1c2ccccc2Sc2ccccc21,pKi,Cholinesterase [1],3.59
same,Ka,[2],0.219 ×10³ /M/min
Cc1ccccc1OC(=O)N1c2ccccc2Sc2ccccc21,pKi,Cholinesterase [1],6.41
same,Ka,[2],547 ×10³ /M/min
CCN(CC)CCCOC(=O)N1c2ccccc2Sc2ccccc21,pKi,Cholinesterase [1],6.13
same,Ka,[2],0.21 ×10³ /M/min
O=C(Oc1ccc2ccccc2c1)N1c2ccccc2Sc2ccccc21,pKi,Cholinesterase [1],6.92
same,Ka,[2],11.2 ×10³ /M/min
COC(=O)N1c2ccccc2Sc2ccccc21,pKi,Cholinesterase [1],4.99
same,Ka,[2],0.426 ×10³ /M/min
O=C(Oc1ccc(-c2ccccc2)cc1)N1c2ccccc2Sc2ccccc21,Activity,Cholinesterase [4],inactive
same,Activity,Cholinesterase [5],100%
same,Activity,Cholinesterase [6],100%
same,Activity,Cholinesterase [7],100%
same,Activity,Cholinesterase [8],99.5%
same,Activity,Cholinesterase [9],90%
same,Activity,Cholinesterase [10],76%
same,Activity,Cholinesterase [11],99%
same,Activity,Cholinesterase [12],94%
same,Activity,Cholinesterase [13],93%
same,Activity,Cholinesterase [14],58%
same,Activity,Cholinesterase [15],87%
same,Activity,Cholinesterase [16],85%
same,Activity,Cholinesterase [17],85%
same,Activity,Cholinesterase [18],67%
same,Activity,Cholinesterase [19],63%
same,Activity,Cholinesterase [20],88%
same,Activity,Cholinesterase [21],75%
same,Activity,Cholinesterase [22],59%
same,Activity,Cholinesterase [23],74%
same,Activity,Cholinesterase [24],57%
same,Activity,Cholinesterase [25],35%
same,Activity,Cholinesterase [26],51%
same,Activity,Cholinesterase [27],15%
same,Activity,Cholinesterase [28],11%
same,Activity,Cholinesterase [29],46%
same,Activity,Cholinesterase [30],26%
same,Activity,Cholinesterase [31],12%
same,Ka,[2],910 ×10³ /M/min
O=C(OCCN1CCOCC1)N1c2ccccc2Sc2ccccc21,pKi,Cholinesterase [1],5.62
same,Ka,[2],0.12 ×10³ /M/min
COc1cccc(OC(=O)N2c3ccccc3Sc3ccccc32)c1,pKi,Cholinesterase [1],6.15
same,Ka,[2],89.4 ×10³ /M/min
CN(C)c1cccc(OC(=O)N2c3ccccc3Sc3ccccc32)c1,pKi,Cholinesterase [1],5.72
same,Ka,[2],19200 ×10³ /M/min
O=C(Oc1cccc2ccccc12)N1c2ccccc2Sc2ccccc21,pKi,Cholinesterase [1],7.44
same,Ka,[2],1650 ×10³ /M/min
COc1ccc(OC(=O)N2c3ccccc3Sc3ccccc32)cc1,pKi,Cholinesterase [1],5.65
same,Ka,[2],1.42 ×10³ /M/min
CCOC(=O)N1c2ccccc2Sc2ccccc21,pKi,Cholinesterase [1],4.63
same,Ka,[2],0.193 ×10³ /M/min
O=C(OCCN1CCCCC1)N1c2ccccc2Sc2ccccc21,pKi,Cholinesterase [1],5.49
same,Ka,[2],3 ×10³ /M/min
CC(C)(C)c1ccccc1OC(=O)N1c2ccccc2Sc2ccccc21,pKi,Cholinesterase [1],6.92
same,Ka,[2],0.011 ×10³ /M/min
CC(C)OC(=O)N1c2ccccc2Sc2ccccc21,pKi,Cholinesterase [1],4.74
same,Ka,[2],1.8 ×10³ /M/min
O=C(OC1CCCC1)N1c2ccccc2Sc2ccccc21,pKi,Cholinesterase [1],5.50
same,Ka,[2],0.492 ×10³ /M/min
CN(C)CCOC(=O)N1c2ccccc2Sc2ccccc21,pKi,Cholinesterase [1],5.61
same,Ka,[2],0.546 ×10³ /M/min
Cc1cccc(OC(=O)N2c3ccccc3Sc3ccccc32)c1,pKi,Cholinesterase [1],5.77
same,Ka,[2],7.49 ×10³ /M/min
